{"source": "patent US20240100116A1", "about": "“EUCOMMIA ULMOIDES OLIV. LEAF EXTRACT CAPABLE OF PROTECTING HEALTH OF KIDNEY FUNCTION, AND PREPARATION AND DETECTION METHODS THEREOF” (Chenland Nutritionals Inc., priority 2023, published 2024)", "target": "xanthine oxidase (Homo sapiens, UniProt P47989)", "sequence (P47989 whole entry, species assumed)": "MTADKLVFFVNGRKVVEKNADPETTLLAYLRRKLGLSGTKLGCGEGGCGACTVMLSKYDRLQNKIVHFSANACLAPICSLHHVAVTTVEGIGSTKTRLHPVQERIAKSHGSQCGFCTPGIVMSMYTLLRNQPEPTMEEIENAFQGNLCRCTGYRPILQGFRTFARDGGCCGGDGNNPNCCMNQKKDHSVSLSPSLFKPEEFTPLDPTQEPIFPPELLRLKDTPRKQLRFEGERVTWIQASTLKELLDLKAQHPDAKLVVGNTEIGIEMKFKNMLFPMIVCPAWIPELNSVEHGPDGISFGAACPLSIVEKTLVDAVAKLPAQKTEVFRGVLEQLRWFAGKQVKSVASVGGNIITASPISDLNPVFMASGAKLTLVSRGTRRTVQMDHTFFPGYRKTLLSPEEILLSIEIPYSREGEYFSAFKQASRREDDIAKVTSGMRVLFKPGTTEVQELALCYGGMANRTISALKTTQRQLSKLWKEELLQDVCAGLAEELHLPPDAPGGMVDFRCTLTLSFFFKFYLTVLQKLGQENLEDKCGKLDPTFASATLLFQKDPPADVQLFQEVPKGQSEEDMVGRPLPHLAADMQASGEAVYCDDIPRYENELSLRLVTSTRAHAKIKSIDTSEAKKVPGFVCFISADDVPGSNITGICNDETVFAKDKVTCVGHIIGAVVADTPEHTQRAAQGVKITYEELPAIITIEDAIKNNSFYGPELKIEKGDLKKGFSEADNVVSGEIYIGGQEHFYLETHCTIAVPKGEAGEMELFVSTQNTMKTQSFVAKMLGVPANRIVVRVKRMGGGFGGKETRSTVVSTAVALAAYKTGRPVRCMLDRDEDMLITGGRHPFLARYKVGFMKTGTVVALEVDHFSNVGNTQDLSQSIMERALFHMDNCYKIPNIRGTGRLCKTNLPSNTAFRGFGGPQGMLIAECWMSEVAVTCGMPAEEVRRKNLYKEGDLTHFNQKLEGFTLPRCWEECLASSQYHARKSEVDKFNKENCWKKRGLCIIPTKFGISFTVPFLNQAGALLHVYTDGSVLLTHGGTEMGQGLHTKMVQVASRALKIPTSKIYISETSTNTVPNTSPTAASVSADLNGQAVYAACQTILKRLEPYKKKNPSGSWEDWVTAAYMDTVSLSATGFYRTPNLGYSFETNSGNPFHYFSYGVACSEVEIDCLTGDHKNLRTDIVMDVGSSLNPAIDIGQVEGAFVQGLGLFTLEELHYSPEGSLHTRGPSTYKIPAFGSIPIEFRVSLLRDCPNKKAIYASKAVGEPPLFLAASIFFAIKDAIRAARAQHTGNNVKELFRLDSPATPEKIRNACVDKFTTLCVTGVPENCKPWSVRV", "test": "Xanthine oxidase (XOD) inhibition, uric acid production read at OD290 nm", "type": "biochemical", "conditions": "read-out: Inhibition rate (%)", "method": "Xanthine oxidase catalyzes a xanthine substrate to produce uric acid and superoxide anion, and uric acid has a characteristic absorption peak under 290 nm UV conditions. By measuring the change curve of absorbance value within a certain time, the slope of this curve is the production rate of the uric acid, to measure the change of the activity of xanthine oxidase, so as to judge the uric acid lowering ability of the sample.\n92.4 μL of xanthine oxidase mother solution (5 U/770 μL) is drawn in a centrifuge tube, and diluted with 11.9076 mL of PBS to obtain 0.05 U/mL xanthine oxidase working solution which shall be prepared for immediate use.\n0.02284 g of xanthine is weighed in a beaker; 1.2 mL of 1 mol/L NaOH solution is added; ultrasonic treatment is conducted for 20 min; and the volume is fixed to 100 mL with the PBS to obtain 1.5 mmol/L xanthine working solution.\nEucommia ulmoides Oliv. leaf extract solutions: 0.50 g of corresponding Eucommia ulmoides Oliv. leaf extract sample in embodiment 5 is weighed; the volume is fixed to 50 mL with the PBS; the solution is thoroughly mixed well to prepare 10.0 mg/mL mother solution; and the mother solution is diluted with the PBS to different multiples to obtain different concentrations of Eucommia ulmoides Oliv. solutions.\n2.1 A proper quantity of centrifugal tubes are taken and numbered as OD1, OD2, OD3 and OD4 respectively. Reagents are added to each tube according to the combinations of Table 1.\nThe concentrations are plotted in horizontal coordinates and the inhibition rates are plotted in vertical coordinates to calculate the concentration IC50 with half inhibition rate.", "data": [{"smiles": "Oc1ncnc2[nH]ncc12", "note": "[Allopurinol, allopurinol]", "values": [{"measurement": "inhibition at 0.05 µg/mL", "setting": "0.05 μg/ml", "result": 34.1, "unit": "%"}, {"measurement": "inhibition at 1 µg/mL", "setting": "1 μg/ml", "result": 44.9, "unit": "%"}, {"measurement": "inhibition at 5 µg/mL", "setting": "5 μg/ml", "result": 59.4, "unit": "%"}, {"measurement": "inhibition at 10 µg/mL", "setting": "10 μg/ml", "result": 74, "unit": "%"}, {"measurement": "inhibition at 15 µg/mL", "setting": "15 μg/ml", "result": 81.2, "unit": "%"}, {"measurement": "inhibition at 20 µg/mL", "setting": "20 μg/ml", "result": 87.2, "unit": "%"}, {"measurement": "inhibition at 25 µg/mL", "setting": "25 μg/ml", "result": 93.3, "unit": "%"}]}]}
